Assay results from US20260306460A1, “COMPOSITION FOR REMOVING AND INHIBITING SENESCENT CELLS, AND USES THEREOF” (LIFECEUTIX CO., LTD., priority 2023, published 2026).

Tests used:
[1] = tested on: proliferating foreskin cells; assay: Survival of proliferating human cells treated with supernatant (secreted fluid) from death-induced cells, Example 13; type: cell-based; settings: 3 days; for viability at 30 µM: Homo sapiens, 72 h
Experimental: After 3 days, cell viability was measured using CellTiter-Glo Luminescent Cell Viability Assay (Promega) or light microscopy.
After treating cells with the test compound at a high concentration that induces the death of most cells in both non-senescence-induced and senescence-induced cells, the cells were washed three times with PBS to remove the test compound, and replaced with fresh medium and cultured for an additional 3 hours at the time when the compound has entered into the cell but has not yet induced cell death (approximately 1 to 3 hours after compound treatment). During this additional culture, by checking with an optical microscope, etc., the medium supernatants containing secreted fluid from normally proliferating and senescent cells in which cell death was induced were obtained. The obtained medium supernatant was replaced with the medium of normally proliferating and senescent cells, respectively, and cell survival rate was measured after 3 days.

[2] = tested on: obesity-induced aged C57BL6J mice; assay: Open field test in obese aged mice given senescent cells killed by test compound, Example 16; type: in vivo, mouse; settings: senescent preadipocytes killed by test compound sc; no administration = 100%
[3] = tested on: doxorubicin-induced aged C57BL6J mice; assay: Serum IL6 (ELISA) in doxorubicin-aged mice, Example 22-5, Table 34; type: in vivo, mouse; settings: untreated aged = 100
Experimental: Eight-week-old male C57BL6J mice (KRIBB Laboratory Animal Resource Center) were acclimated to the experimental environment for one week. Afterwards, the anticancer agent doxorubicin was administered intraperitoneally at a concentration of 10 mg/kg, inducing aging for more than 10 days. The aging-induced mice were randomly assigned to experimental and control groups. LX-403 was mixed with a 10% ethanol solution of PEG400 and administered orally at a concentration of 25 mg/kg or intradermally at a concentration of 1 μM for 21 days. LX-1801 was mixed in distilled water with 4% DMSO, 30% PEG300, and 5% Tween80 and administered intradermally at a concentration of 0.4 μM daily for 21 days. LX-2001 was mixed in PBS and administered intradermally at a concentration of 2 μM daily for 21 days. LX-2002 was mixed in distilled water with 4% DMSO, 30% PEG300, and 5% Tween80 and administered intradermally at a concentration of 2 μM daily for 21 days. […] LX-2005 was mixed in distilled water with 4% DMSO, 30% PEG300, and 5% Tween80 and administered intradermally at a concentration of 90 μM daily for 21 days. […]
The amount of IL6, a senescence-associated secretory factor (SASP), was measured in serum collected from mice using the same method as in Example 7-5 of WO2023-085787 A1 using an enzyme-linked immunosorbent assay (ELISA Kit, R&D Systems).

[4] = tested on: obesity-induced aged C57BL6J mice; assay: p16 and p21 mRNA in obesity-aged mice, Example 23-2, Table 42; type: in vivo, mouse; settings: 360 mg/kg oral daily for 21 days, untreated 100%
Experimental: 15-week-old male C57BL6J mice (The Jackson Laboratory) were induced to obesity by a high-fat diet using the same method as in Example 9-1 WO2023-085787 A1. After acclimation to the experimental environment for one week, the mice were randomly assigned to experimental and control groups. […] LX-3002 was mixed in distilled water with 4% DMSO, 30% PEG300, and 5% Tween80 and administered orally at a concentration of 10 mg/kg daily for 21 days. LX-5701 was mixed in PBS and administered orally at a concentration of 360 mg/kg daily for 21 days. LX-6807 was mixed in saline and administered intraperitoneally at a concentration of 1 mg/kg daily for 21 days. The control group received only the solution in the same volume. After the end of drug administration, the methods described in each example below were performed.
Mice were sacrificed using the same method as in Example 7-2 of WO2023-085787 A1. RNA was extracted from organ tissues from each site, and the synthesized cDNA was used for qRT-PCR (quantitative real-time PCR) analysis. […] The mRNA levels of p16 and p21 after obesity induction were calculated as 100% and compared with the mRNA levels of p16 and p21 after LX-5701 treatment.

SMILES: COC(=O)c1ccc([C@H]2c3[nH]c4ccccc4c3C[C@H](C(=O)OC)N2C(=O)CCl)cc1 [LX-405]
- viability at 30 µM ([1]; supernatant from death-induced proliferating cells): 104%
- viability at 30 µM ([1]; supernatant from death-induced senescent cells): 100%
- Survival ([1]; supernatant from No Cells): 99.4 (±2.4) %

SMILES: S=C(N/N=C1\CCCc2cccnc21)N1CCN(c2ccccn2)CC1 [LX-801]
- Open Field Test Time in Center [2]: 216.8 (±12.8) %

SMILES: O=C1C2CCN(CC2)C1CNC(=O)C(F)(F)F (stereo not shown) [LX-5701]
- IL6 (%) [3]: 57 (±21.5) %
- p16 mRNA, Eye ([4]; Eye): 71%
- p21 mRNA, Eye ([4]; Eye): 70%
- p16 mRNA, Heart ([4]; Heart): 80%
- p21 mRNA, Heart ([4]; Heart): 81%
- p16 mRNA, Liver ([4]; Liver): 63%
- p21 mRNA, Liver ([4]; Liver): 61%
- p16 mRNA, Lung ([4]; Lung): 74%
- p21 mRNA, Lung ([4]; Lung): 77%
- p16 mRNA, Muscle ([4]; Muscle): 75%
- p21 mRNA, Muscle ([4]; Muscle): 64%
- p16 mRNA, Skin ([4]; Skin): 77%
- p21 mRNA, Skin ([4]; Skin): 68%
- p16 mRNA, asWAT ([4]; asWAT): 67%
- p21 mRNA, asWAT ([4]; asWAT): 79%
- p16 mRNA, eWAT ([4]; eWAT): 65%
- p21 mRNA, eWAT ([4]; eWAT): 55%
- p16 mRNA, iBAT ([4]; iBAT): 72%
- p21 mRNA, iBAT ([4]; iBAT): 80%
- p16 mRNA, iWAT ([4]; iWAT): 61%
- p21 mRNA, iWAT ([4]; iWAT): 51%
